Results published in ChEMBL document CHEMBL1201862, “PubChem BioAssay data set” (2004).
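Compound exposure: 48 hours, 5 concentrations, 96-well plates. Abbreviation: GI50, concentration required for 50% inhibition of growth.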 Active and inactive are the calls of the source. No stated cut-off is given here; in the data, active = GI50 up to about 1.1 µM and inactive = higher.

What was measured:
Assay in all cases: DTP human tumour cell line panel, 48 h
[1] = tested on: UO-31
[2] = tested on: HOP-62
[3] = tested on: CCRF-CEM
[4] = tested on: HT-29
[5] = tested on: LXFL 529
[6] = tested on: NCI-H23
[7] = tested on: NCI-H522
[8] = tested on: 786-0
[9] = tested on: UACC-257
[10] = tested on: DLD-1
[11] = tested on: K562
[12] = tested on: RPMI-8226
[13] = tested on: A498
[14] = tested on: MOLT-4
[15] = tested on: EKVX
[16] = tested on: HCT-116
[17] = tested on: M19-MEL
[18] = tested on: DU-145
[19] = tested on: T47D
[20] = tested on: Hs-578T

Measured: GI50

COc1cc(/C=C2\[C@H]3c4c(c(OC)c(C)c(OC)c4OC)C[C@@H](C(=O)N2Cc2ccccc2)N3C(=O)OC(C)C)c(OC)c(C)c1OC
inactive: [1] 66.7 µM | [2] > 100 µM | [3] 54 µM | [4] 53.2 µM | [5] 52.1 µM | [6] 78 µM | [7] 27.5 µM | [8] > 100 µM | [9] 34 µM | [10] > 100 µM | [11] 40 µM | [12] 27.2 µM | [13] > 100 µM | [14] 42.9 µM | [15] 52.5 µM | [16] 58.7 µM

CCCCNc1nc(C#N)c(N)s1
inactive: [1] > 100 µM | [2] > 100 µM | [4] > 100 µM | [5] > 100 µM | [6] > 100 µM | [7] > 100 µM | [8] > 100 µM | [9] > 100 µM | [10] > 100 µM | [11] > 100 µM | [12] > 100 µM | [14] > 100 µM | [16] > 100 µM

COc1ccc(CC2NCCc3cc(OC)c(OC)cc32)cc1 (configuration not stated)
inactive: [1] > 85.3 µM | [2] > 100 µM | [3] > 100 µM | [4] > 100 µM | [5] > 100 µM | [6] > 100 µM | [7] > 100 µM | [8] > 100 µM | [9] > 100 µM | [17] > 100 µM | [10] > 100 µM | [12] > 100 µM | [14] > 100 µM | [15] > 100 µM | [16] > 100 µM

COC(=O)CCC(NC(=S)N/N=C(\C)c1ccco1)C(=O)OC (configuration not stated)
inactive: [1] > 100 µM | [2] > 100 µM | [3] > 100 µM | [4] > 100 µM | [5] > 100 µM | [6] > 100 µM | [7] > 100 µM | [8] > 100 µM | [9] > 100 µM | [17] > 100 µM | [10] > 100 µM | [11] > 100 µM | [13] > 100 µM | [15] > 100 µM | [16] > 100 µM

C[Si](C)(C)/C=C\CCCN1C(=O)CCC1=O
inactive: [1] > 100 µM | [3] 64.7 µM | [4] > 100 µM | [5] > 100 µM | [6] > 100 µM | [7] > 100 µM | [8] > 100 µM | [9] > 100 µM | [17] > 100 µM | [11] 60 µM | [12] > 100 µM | [13] > 100 µM | [14] > 100 µM | [15] > 100 µM | [16] > 100 µM

COc1ccc2c(c1)[n+]([O-])c(-c1ccc(OC)c(OC)c1)c(N)[n+]2[O-]
inactive: [1] > 100 µM | [2] > 100 µM | [3] 84.1 µM | [4] 52.1 µM | [5] 49.8 µM | [6] 21.2 µM | [7] 15.9 µM | [8] > 100 µM | [9] 31 µM | [17] 54.6 µM | [10] 78.9 µM | [11] 72.1 µM | [12] > 100 µM | [13] > 100 µM | [14] 78.5 µM | [15] > 100 µM

C[Si](C)(C)/C(Br)=C\CCN1C(=O)CCC1=O
inactive: [1] > 100 µM | [2] > 100 µM | [3] > 100 µM | [4] > 100 µM | [5] > 100 µM | [6] > 100 µM | [8] > 100 µM | [9] > 100 µM | [17] > 100 µM | [10] > 100 µM | [11] > 100 µM | [13] > 100 µM | [14] > 100 µM | [15] > 100 µM | [16] > 100 µM

Cc1cc([N+](=O)[O-])ccc1NC(=O)C(=O)C(C(=O)c1ccccc1-c1ccccc1)C1OC(=O)c2ccccc21 (configuration not stated)
inactive: [1] 16.6 µM | [3] 22.9 µM | [4] 18.8 µM | [5] 15.6 µM | [6] 25.6 µM | [7] 12.9 µM | [8] 16.1 µM | [9] 25.4 µM | [17] 12.9 µM | [11] 25.4 µM | [12] 24 µM | [13] > 10 µM | [14] 15.6 µM | [15] > 10 µM | [16] 16 µM

Cc1cc(O)nc(NNC(C#N)c2ccc(N(C)C)cc2)n1 (configuration not stated)
inactive: [1] > 100 µM | [2] > 100 µM | [3] > 100 µM | [4] > 100 µM | [6] > 100 µM | [7] > 100 µM | [8] > 100 µM | [9] > 100 µM | [17] > 100 µM | [10] > 100 µM | [11] > 100 µM | [12] > 100 µM | [16] > 100 µM

c1ccc(NCn2cnc3ccccc32)cc1
inactive: [1] > 100 µM | [3] 37.1 µM | [4] 36.3 µM | [5] > 100 µM | [6] > 100 µM | [7] > 100 µM | [8] > 100 µM | [9] > 100 µM | [17] > 100 µM | [10] 29.2 µM | [11] 20.8 µM | [12] 25.9 µM | [13] > 100 µM | [14] > 100 µM | [15] > 100 µM | [16] 74.1 µM

O=C(O)c1cc2c(s1)C(=O)c1sccc1C2=O
inactive: [1] 5.98 µM | [2] 6.11 µM | [3] 6.84 µM | [4] 5.64 µM | [6] 2.2 µM | [7] 3.54 µM | [8] 8.34 µM | [18] 2.33 µM | [9] 3.51 µM | [17] 1.24 µM | [10] 14.4 µM | [19] 4.97 µM | [11] 4.03 µM | [20] 2.49 µM | [12] 12.7 µM | [13] 17.5 µM | [14] 8.71 µM | [15] 15.7 µM | [16] 2.22 µM

Cc1cc2c(c(C(=O)O)c1C)-c1cccc(F)c1C2=O
inactive: [1] 27 µM | [2] > 100 µM | [3] > 100 µM | [4] > 100 µM | [5] > 100 µM | [6] > 100 µM | [7] > 100 µM | [8] > 100 µM | [9] > 100 µM | [17] > 100 µM | [10] > 100 µM | [11] > 100 µM | [12] > 100 µM | [14] > 100 µM | [15] > 100 µM

CCOC(=O)C(=Cc1cc(OC)ccc1OC)C(=O)OCC
inactive: [2] 10.4 µM | [3] 2.95 µM | [4] 3.85 µM | [5] 3.26 µM | [6] 3.03 µM | [7] 3.66 µM | [8] 3.56 µM | [17] 4.07 µM | [10] 8.41 µM | [11] 3.42 µM | [12] 3.44 µM | [13] 14.4 µM | [14] 5.89 µM | [15] 10.6 µM | [16] 14.4 µM

CC1CC(=O)C(CC(=O)O)C1C(C(=O)C(=O)Nc1c(C#N)cccc1[N+](=O)[O-])[N+](=O)[O-] (configuration not stated)
inactive: [1] 57.3 µM | [2] > 100 µM | [3] > 100 µM | [4] > 100 µM | [5] > 100 µM | [6] > 100 µM | [8] > 100 µM | [9] > 100 µM | [17] > 100 µM | [10] > 100 µM | [11] > 100 µM | [12] > 100 µM | [13] > 100 µM | [14] > 100 µM | [15] > 100 µM | [16] > 100 µM

O=C(CSSCC(=O)OCCS(=O)(=O)Nc1ccc(Br)cc1)OCCS(=O)(=O)Nc1ccc(Br)cc1
inactive: [1] 28.6 µM | [2] > 10 µM | [3] 7.66 µM | [4] 4.1 µM | [5] 7.1 µM | [6] 11.4 µM | [7] 6.53 µM | [8] > 10 µM | [9] 9.46 µM | [17] 15.1 µM | [10] 15.7 µM | [11] 10.4 µM | [12] 10 µM | [13] 11.8 µM | [14] 3.11 µM | [15] 26.5 µM

CN(CCO)c1nc2c(c(=O)[nH]1)CNCC2
inactive: [1] > 100 µM | [2] > 100 µM | [3] > 100 µM | [4] > 100 µM | [5] > 100 µM | [6] > 100 µM | [7] > 100 µM | [8] > 100 µM | [9] > 100 µM | [17] 80.2 µM | [10] > 100 µM | [11] > 100 µM | [12] > 100 µM | [14] > 100 µM | [15] > 100 µM | [16] > 100 µM

NC1C[C@H](n2cc(/C=C/Br)c(=O)[nH]c2=O)C[C@@H]1CO (some centres not stated)
inactive: [1] > 100 µM | [2] > 100 µM | [3] > 100 µM | [4] > 100 µM | [5] 50.4 µM | [6] > 100 µM | [7] > 100 µM | [8] > 100 µM | [9] > 100 µM | [17] > 100 µM | [10] > 100 µM | [11] > 100 µM | [12] > 100 µM | [13] > 100 µM | [14] > 100 µM | [15] > 100 µM
